Legend:
[1] = target: Mitogen-activated protein kinase 1 (Homo sapiens) (UniProt P28482); experiment: Inhibition of human ERK2 at 10 uM using MBP as substrate by [gamma-33P]-ATP assay relative to control
[2] = target: Mitogen-activated protein kinase 8 (Homo sapiens) (UniProt P45983); experiment: Inhibition of human JNK1 at 10 uM using ATF2 as substrate by [gamma-33P]-ATP assay relative to control
[3] = organism: Homo sapiens; experiment: Selectivity index, ratio of IC50 for human BRAF V600E mutant to IC50 for human p38alpha
[4] = Tmax in Sprague-Dawley rat at 10 mg/kg, po measured for each 30 mins by LC-MS/MS analysis; type: ADME, organism-based; conditions: in vivo
[5] = target: Proto-oncogene tyrosine-protein kinase Src (Homo sapiens) (UniProt P12931); experiment: Inhibition of human c-SRC at 10 uM using poly[Glu:Tyr] (4:1) as substrate by [gamma-33P]-ATP assay relative to control
[6] = AUCinfinity in Sprague-Dawley rat at 10 mg/kg, po measured for each 30 mins by LC-MS/MS analysis; type: ADME, organism-based; design: dose 10 mg/kg, time infinity, route oral; conditions: in vivo
[7] = Clearance in Sprague-Dawley rat at 10 mg/kg, iv measured for each 30 mins by LC-MS/MS analysis; type: ADME, organism-based; conditions: in vivo
[8] = organism: Homo sapiens; experiment: Selectivity index, ratio of IC50 for human RAF1 to IC50 for human p38alpha
[9] = target: T1, Hepatocyte growth factor receptor (Homo sapiens, UniProt P08581); experiment: Inhibition of human c-MET at 10 uM using KKKSPGEYVNIEFG as substrate by [gamma-33P]-ATP assay relative to control
[10] = target: Receptor tyrosine-protein kinase erbB-4 (Homo sapiens) (UniProt Q15303); experiment: Inhibition of human ERBB4 at 10 uM using poly[Glu:Tyr] (4:1) as substrate by [gamma-33P]-ATP assay relative to control
[11] = target: Dual specificity mitogen-activated protein kinase kinase 1 (Homo sapiens) (UniProt Q02750); experiment: Inhibition of human MEK1 at 10 uM using ERK2 as substrate by [gamma-33P]-ATP assay relative to control
[12] = target: Serine/threonine-protein kinase B-raf (Homo sapiens) (UniProt P15056); experiment: Inhibition of human BRAF at 10 uM using MEK1 (K97R) as substrate by [gamma-33P]-ATP assay relative to control
[13] = target: Mitogen-activated protein kinase 11 (Homo sapiens) (UniProt Q15759); experiment: Inhibition of human p38beta at 10 uM using MBP as substrate by [gamma-33P]-ATP assay relative to control
[14] = target: T1, Hepatocyte growth factor receptor; experiment: Inhibition of human c-MET using KKKSPGEYVNIEFG as substrate by [gamma-33P]-ATP assay
[15] = target: Tyrosine-protein kinase Fyn (Homo sapiens) (UniProt P06241); experiment: Inhibition of human FYN at 10 uM using poly[Glu:Tyr] (4:1) as substrate by [gamma-33P]-ATP assay relative to control
[16] = Stability in human plasma assessed as remaining compound at 10 uM incubated for 30 mins by LC-MS analysis; type: ADME, cell-free; conditions: read-out: Stability
[17] = target: Mitogen-activated protein kinase 14 (Homo sapiens, UniProt Q16539); experiment: Inhibition of human p38alpha using MBP as substrate by [gamma-33P]-ATP assay
[18] = Half life in Sprague-Dawley rat at 10 mg/kg, po measured for each 30 mins by LC-MS/MS analysis; type: ADME, organism-based; conditions: in vivo
[19] = target: Receptor tyrosine-protein kinase erbB-2 (Homo sapiens) (UniProt P04626); experiment: Inhibition of human ERBB2 at 10 uM using poly[Glu:Tyr] (4:1) as substrate by [gamma-33P]-ATP assay relative to control
[20] = target: Macrophage colony-stimulating factor 1 receptor (Homo sapiens) (UniProt P07333); experiment: Inhibition of human FMS at 10 uM using poly[Glu:Tyr] (4:1) as substrate by [gamma-33P]-ATP assay relative to control
[21] = target: Mitogen-activated protein kinase 3 (Homo sapiens) (UniProt P27361); experiment: Inhibition of human ERK1 at 10 uM using MBP as substrate by [gamma-33P]-ATP assay relative to control
[22] = target: T2, RAF proto-oncogene serine/threonine-protein kinase (Homo sapiens, UniProt P04049); experiment: Inhibition of human RAF1 using MEK1 as substrate by [gamma-33P]-ATP assay
[23] = Cmax in Sprague-Dawley rat at 10 mg/kg, po measured for each 30 mins by LC-MS/MS analysis; type: ADME, organism-based; design: dose 10 mg/kg, route oral; conditions: in vivo
[24] = target: RAC-alpha serine/threonine-protein kinase (Homo sapiens) (UniProt P31749); experiment: Inhibition of human AKT1 at 10 uM using KGSGSGRPRTSSFAEG as substrate by [gamma-33P]-ATP assay relative to control
[25] = target: T2, RAF proto-oncogene serine/threonine-protein kinase; experiment: Inhibition of human RAF1 at 10 uM using MEK1 (K97R) as substrate by [gamma-33P]-ATP assay relative to control
[26] = target: Tyrosine-protein kinase BTK (Homo sapiens) (UniProt Q06187); experiment: Inhibition of human BTK at 10 uM using KVEKIGEGTYGVVYK as substrate by [gamma-33P]-ATP assay relative to control
[27] = AUCinfinity in Sprague-Dawley rat at 10 mg/kg, iv measured for each 30 mins by LC-MS/MS analysis; type: ADME, organism-based; design: dose 10 mg/kg, time infinity, route intravenous; conditions: in vivo
[28] = target: Voltage-gated inwardly rectifying potassium channel KCNH2 (Homo sapiens, UniProt Q12809); experiment: Inhibition of human ERG incubated for 4 hrs by competitive fluorescence tracer binding based assay
[29] = target: Epidermal growth factor receptor (Homo sapiens) (UniProt P00533); experiment: Inhibition of human EGFR at 10 uM using poly[Glu:Tyr] (4:1) as substrate by [gamma-33P]-ATP assay relative to control
[30] = target: Tyrosine-protein kinase JAK1 (Homo sapiens) (UniProt P23458); experiment: Inhibition of human JAK1 at 10 uM using poly[Glu:Tyr] (4:1) as substrate by [gamma-33P]-ATP assay relative to control
[31] = target: Proto-oncogene tyrosine-protein kinase ROS (Homo sapiens) (UniProt P08922); experiment: Inhibition of human ROS at 10 uM using KKKSPGEYVNIEFG as substrate by [gamma-33P]-ATP assay relative to control
[32] = target: Insulin receptor (Homo sapiens) (UniProt P06213); experiment: Inhibition of human IR at 10 uM using poly[Glu:Tyr] (4:1) as substrate by [gamma-33P]-ATP assay relative to control
[33] = target: Tyrosine-protein kinase Tec (Homo sapiens) (UniProt P42680); experiment: Inhibition of human TEC at 10 uM using poly[Glu:Tyr] (4:1) as substrate by [gamma-33P]-ATP assay relative to control
[34] = target: DNA-dependent protein kinase catalytic subunit (Homo sapiens) (UniProt P78527); experiment: Inhibition of human DNAPK at 10 uM using EPPLSQEAFADLWKK as substrate by […]-ATP assay relative to control

T1 sequence (P08581 whole entry): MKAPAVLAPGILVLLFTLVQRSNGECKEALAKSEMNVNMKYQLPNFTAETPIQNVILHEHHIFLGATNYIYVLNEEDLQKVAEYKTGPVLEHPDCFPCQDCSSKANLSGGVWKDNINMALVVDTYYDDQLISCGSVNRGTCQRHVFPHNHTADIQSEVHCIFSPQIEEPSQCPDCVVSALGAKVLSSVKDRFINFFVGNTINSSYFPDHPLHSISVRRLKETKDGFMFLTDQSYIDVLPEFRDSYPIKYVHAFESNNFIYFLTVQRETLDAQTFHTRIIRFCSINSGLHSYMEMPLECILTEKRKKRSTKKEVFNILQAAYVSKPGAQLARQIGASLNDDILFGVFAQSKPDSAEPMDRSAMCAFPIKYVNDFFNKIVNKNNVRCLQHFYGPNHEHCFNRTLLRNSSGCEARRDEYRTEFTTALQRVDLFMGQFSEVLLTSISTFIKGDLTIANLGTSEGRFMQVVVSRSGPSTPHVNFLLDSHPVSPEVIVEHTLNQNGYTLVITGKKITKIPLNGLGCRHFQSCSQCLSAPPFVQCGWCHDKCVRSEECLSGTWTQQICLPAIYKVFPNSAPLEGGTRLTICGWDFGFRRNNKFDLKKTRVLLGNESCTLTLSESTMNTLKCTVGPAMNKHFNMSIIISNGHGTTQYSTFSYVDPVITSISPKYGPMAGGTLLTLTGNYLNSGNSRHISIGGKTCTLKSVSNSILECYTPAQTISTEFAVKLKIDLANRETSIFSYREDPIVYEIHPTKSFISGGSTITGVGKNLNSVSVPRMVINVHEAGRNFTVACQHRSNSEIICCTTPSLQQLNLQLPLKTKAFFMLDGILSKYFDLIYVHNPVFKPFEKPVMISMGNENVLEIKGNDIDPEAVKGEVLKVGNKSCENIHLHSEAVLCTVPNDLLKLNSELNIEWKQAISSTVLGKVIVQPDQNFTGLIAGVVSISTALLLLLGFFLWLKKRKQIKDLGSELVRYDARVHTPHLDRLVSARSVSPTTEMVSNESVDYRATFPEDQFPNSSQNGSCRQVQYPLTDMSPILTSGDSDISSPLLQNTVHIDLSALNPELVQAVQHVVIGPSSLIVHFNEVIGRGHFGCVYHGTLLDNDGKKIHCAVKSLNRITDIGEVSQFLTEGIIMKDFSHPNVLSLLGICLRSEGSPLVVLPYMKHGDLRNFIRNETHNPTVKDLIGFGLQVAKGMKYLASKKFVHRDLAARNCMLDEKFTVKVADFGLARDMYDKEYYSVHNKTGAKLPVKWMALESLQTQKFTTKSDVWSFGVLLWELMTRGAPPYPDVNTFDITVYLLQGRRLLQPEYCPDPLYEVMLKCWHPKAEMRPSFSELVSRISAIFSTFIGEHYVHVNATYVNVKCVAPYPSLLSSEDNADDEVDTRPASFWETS
T2 sequence (P04049 whole entry): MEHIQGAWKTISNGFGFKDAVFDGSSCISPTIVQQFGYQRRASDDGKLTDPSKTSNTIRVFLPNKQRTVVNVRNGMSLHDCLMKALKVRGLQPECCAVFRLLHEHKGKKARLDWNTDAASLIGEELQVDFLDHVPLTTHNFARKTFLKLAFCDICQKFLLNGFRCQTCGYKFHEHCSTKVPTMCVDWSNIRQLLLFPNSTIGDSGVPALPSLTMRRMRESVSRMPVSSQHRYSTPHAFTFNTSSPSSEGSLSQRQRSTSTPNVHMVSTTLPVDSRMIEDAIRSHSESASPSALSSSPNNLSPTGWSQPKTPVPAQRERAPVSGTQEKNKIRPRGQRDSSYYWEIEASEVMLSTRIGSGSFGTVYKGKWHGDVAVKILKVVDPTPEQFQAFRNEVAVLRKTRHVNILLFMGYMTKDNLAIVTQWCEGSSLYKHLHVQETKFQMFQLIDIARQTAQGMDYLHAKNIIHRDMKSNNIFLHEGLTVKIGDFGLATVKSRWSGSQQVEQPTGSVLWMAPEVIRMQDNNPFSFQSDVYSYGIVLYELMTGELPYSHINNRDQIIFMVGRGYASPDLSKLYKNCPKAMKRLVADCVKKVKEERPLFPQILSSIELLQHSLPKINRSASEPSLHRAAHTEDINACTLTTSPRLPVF
Macrophage colony-stimulating factor 1 receptor (Homo sapiens), sequence (P07333 whole entry): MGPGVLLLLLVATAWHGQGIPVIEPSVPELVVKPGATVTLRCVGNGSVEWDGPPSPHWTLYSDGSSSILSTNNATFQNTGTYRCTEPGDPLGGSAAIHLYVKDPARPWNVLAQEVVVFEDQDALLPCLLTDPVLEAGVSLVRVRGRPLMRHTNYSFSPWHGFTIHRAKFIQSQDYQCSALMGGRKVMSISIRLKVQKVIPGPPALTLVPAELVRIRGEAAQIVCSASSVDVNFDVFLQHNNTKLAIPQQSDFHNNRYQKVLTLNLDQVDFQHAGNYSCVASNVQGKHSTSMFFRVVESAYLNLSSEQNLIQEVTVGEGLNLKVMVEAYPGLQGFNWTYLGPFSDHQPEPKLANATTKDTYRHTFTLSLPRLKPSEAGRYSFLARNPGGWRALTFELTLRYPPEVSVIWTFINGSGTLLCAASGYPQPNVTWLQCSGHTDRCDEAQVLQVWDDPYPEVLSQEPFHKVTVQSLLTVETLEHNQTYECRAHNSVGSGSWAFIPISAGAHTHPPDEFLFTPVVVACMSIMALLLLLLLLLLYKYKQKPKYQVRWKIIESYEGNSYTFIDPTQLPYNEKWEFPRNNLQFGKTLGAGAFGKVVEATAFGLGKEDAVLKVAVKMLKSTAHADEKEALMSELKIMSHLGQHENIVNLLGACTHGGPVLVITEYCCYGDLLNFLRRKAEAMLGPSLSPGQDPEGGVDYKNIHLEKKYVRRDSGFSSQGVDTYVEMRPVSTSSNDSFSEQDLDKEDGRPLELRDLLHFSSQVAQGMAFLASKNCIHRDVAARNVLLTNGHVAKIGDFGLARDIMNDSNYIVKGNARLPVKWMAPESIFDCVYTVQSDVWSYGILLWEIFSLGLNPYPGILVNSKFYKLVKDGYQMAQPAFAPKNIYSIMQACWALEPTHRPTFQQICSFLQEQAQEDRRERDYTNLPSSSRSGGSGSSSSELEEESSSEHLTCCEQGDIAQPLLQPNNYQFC
Tyrosine-protein kinase Tec (Homo sapiens), sequence (P42680 whole entry): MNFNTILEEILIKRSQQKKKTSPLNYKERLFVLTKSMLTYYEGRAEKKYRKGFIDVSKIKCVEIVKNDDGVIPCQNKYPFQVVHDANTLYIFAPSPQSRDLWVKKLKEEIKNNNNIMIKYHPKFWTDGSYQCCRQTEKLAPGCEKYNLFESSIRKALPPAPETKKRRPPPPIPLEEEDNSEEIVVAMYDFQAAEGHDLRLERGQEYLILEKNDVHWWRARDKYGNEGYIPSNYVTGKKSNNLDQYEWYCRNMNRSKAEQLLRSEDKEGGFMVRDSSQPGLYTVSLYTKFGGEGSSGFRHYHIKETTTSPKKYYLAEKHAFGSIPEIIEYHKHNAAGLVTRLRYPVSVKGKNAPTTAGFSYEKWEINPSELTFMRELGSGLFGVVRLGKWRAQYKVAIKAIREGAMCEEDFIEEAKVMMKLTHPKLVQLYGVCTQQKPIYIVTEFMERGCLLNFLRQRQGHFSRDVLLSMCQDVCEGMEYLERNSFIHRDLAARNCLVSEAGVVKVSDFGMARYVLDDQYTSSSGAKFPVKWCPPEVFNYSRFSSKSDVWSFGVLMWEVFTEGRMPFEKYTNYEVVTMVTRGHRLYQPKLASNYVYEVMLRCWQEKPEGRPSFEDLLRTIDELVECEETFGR
Tyrosine-protein kinase Fyn (Homo sapiens), sequence (P06241 2-537 limits assumed): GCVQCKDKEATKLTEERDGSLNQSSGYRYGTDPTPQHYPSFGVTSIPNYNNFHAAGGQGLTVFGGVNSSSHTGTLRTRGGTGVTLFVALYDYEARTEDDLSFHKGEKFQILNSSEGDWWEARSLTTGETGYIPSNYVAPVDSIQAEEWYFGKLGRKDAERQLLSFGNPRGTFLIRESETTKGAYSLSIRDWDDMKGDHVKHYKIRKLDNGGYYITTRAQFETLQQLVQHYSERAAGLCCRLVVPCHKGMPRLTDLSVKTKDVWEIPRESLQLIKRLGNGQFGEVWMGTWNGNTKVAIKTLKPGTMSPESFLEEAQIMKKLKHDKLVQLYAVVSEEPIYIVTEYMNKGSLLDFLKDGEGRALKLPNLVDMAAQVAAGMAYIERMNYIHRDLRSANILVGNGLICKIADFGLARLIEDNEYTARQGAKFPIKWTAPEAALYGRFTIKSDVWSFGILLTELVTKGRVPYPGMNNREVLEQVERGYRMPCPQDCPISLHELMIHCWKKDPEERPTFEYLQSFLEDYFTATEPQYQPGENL
Mitogen-activated protein kinase 11 (Homo sapiens), sequence (Q15759 whole entry): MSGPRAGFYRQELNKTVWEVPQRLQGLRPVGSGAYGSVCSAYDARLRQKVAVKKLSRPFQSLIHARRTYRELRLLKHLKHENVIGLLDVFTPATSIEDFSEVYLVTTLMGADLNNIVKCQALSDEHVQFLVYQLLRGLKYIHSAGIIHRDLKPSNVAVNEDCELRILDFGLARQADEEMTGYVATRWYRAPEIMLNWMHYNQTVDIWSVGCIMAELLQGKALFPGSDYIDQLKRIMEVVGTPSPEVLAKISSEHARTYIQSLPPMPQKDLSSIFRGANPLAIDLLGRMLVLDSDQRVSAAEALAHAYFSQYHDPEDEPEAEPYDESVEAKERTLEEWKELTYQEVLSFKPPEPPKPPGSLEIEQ
Mitogen-activated protein kinase 1 (Homo sapiens), sequence (P28482 whole entry): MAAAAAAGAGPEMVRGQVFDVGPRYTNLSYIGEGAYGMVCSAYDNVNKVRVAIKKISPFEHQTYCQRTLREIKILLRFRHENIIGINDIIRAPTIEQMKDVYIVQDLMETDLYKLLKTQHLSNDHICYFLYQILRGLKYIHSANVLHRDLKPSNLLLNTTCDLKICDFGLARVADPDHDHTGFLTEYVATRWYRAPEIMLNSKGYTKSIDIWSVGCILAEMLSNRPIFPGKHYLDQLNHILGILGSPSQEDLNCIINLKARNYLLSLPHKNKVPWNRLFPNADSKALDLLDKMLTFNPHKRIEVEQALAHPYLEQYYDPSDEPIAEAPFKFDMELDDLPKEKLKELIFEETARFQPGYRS

**Q.** With `COc1ccc(-c2nn(-c3cccc(NC(=O)c4cccc(C(F)(F)F)c4)c3)cc2-c2ccncc2)cc1Cl` as the molecule, how does the inhibition [1] read?
**A.** The inhibition was 1.72%.

**Q.** What about the inhibition [2] of the same molecule?
**A.** The inhibition was 28.2%.

**Q.** What about the Ratio IC50 [3] of the same molecule?
**A.** The Ratio IC50 was 7.18.

**Q.** And the Tmax [4]?
**A.** Its Tmax is 1.2 h.

**Q.** And the inhibition [5]?
**A.** Its inhibition is 33.4%.

**Q.** What about the AUC(0-inf) [6] of the same molecule?
**A.** The AUC(0-inf) was 169 ng·h/mL.

**Q.** What about the clearance [7] of the same molecule?
**A.** The clearance was 90 mL/min/kg.

**Q.** And the Ratio IC50 [8]?
**A.** The Ratio IC50 was 15.3.

**Q.** What about the inhibition [9] of the same molecule?
**A.** The inhibition was 77.7%.

**Q.** What about the inhibition [10] of the same molecule?
**A.** The inhibition was 26.9%.

**Q.** And the inhibition [11]?
**A.** Its inhibition is 12.2%.

**Q.** What about the inhibition [12] of the same molecule?
**A.** Its inhibition is 54.4%.

**Q.** What about the inhibition [13] of the same molecule?
**A.** Its inhibition is 63.2%.

**Q.** And the IC50 [14]?
**A.** Its IC50 is over 10 µM.

**Q.** And the inhibition [15]?
**A.** The inhibition was 27%.

**Q.** What about the remaining at 0.5 h, 10 µM [16] of the same molecule?
**A.** Its remaining at 0.5 h, 10 µM is 100%.

**Q.** And the IC50 [17]?
**A.** The IC50 was 22 nM.

**Q.** And the half-life [18]?
**A.** The half-life was 438 min.

**Q.** And the inhibition [19]?
**A.** Its inhibition is 20.4%.

**Q.** What about the inhibition [20] of the same molecule?
**A.** The inhibition was 19%.

**Q.** What about the inhibition [21] of the same molecule?
**A.** The inhibition was -1.3%.

**Q.** What about the IC50 [22] of the same molecule?
**A.** The IC50 was 336 nM.

**Q.** What about the Cmax [23] of the same molecule?
**A.** Its Cmax is 33.2 ng/mL.

**Q.** What about the inhibition [24] of the same molecule?
**A.** The inhibition was 7.06%.

**Q.** And the inhibition [25]?
**A.** The inhibition was 90.5%.

**Q.** What about the inhibition [26] of the same molecule?
**A.** The inhibition was 5.62%.

**Q.** What about the AUC(0-inf) [27] of the same molecule?
**A.** The AUC(0-inf) was 1460 ng·h/mL.

**Q.** And the IC50 [28]?
**A.** The IC50 was 13.1 µM.

**Q.** And the inhibition [29]?
**A.** The inhibition was 24.5%.

**Q.** And the inhibition [30]?
**A.** Its inhibition is -7.68%.

**Q.** What about the inhibition [31] of the same molecule?
**A.** The inhibition was 5.26%.

**Q.** What about the inhibition [32] of the same molecule?
**A.** The inhibition was -0.36%.

**Q.** What about the inhibition [33] of the same molecule?
**A.** Its inhibition is -3.79%.

**Q.** What about the inhibition [34] of the same molecule?
**A.** Its inhibition is -1.83%.

From ChEMBL document CHEMBL4311959, “Discovery of a potent p38α/MAPK14 kinase inhibitor: Synthesis, in vitro/in vivo biological evaluation, and docking studies” (Eur J Med Chem, 2019)
